What all share (format): functional
For assay [1], the system named is Mycobacterium tuberculosis. Kind of assay: Antimycobacterial activity against rifampicin-resistant Mycobacterium tuberculosis after 2 to 3 weeks by turbidity assay.
The test system of assay [2] is Mycobacterium tuberculosis. The assay can be described thus: Antimycobacterial activity against streptomycin-resistant Mycobacterium tuberculosis after 2 to 3 weeks by turbidity assay.
Assay [3] deals with Mycobacterium tuberculosis. Kind of assay: Antimycobacterial activity against INH-resistant Mycobacterium tuberculosis after 2 to 3 weeks by turbidity assay.

The text below walks through data of ChEMBL document CHEMBL3739380, “Discovery of benzothiazoles as antimycobacterial agents: Synthesis, structure-activity relationships and binding studies with Mycobacterium tuberculosis decaprenylphosphoryl-β-D-ribose 2'-oxidase” (Bioorg Med Chem, 2015).

A word on the MIC: it is the lowest concentration found to suppress growth. Higher therefore signals weaker potency.

≈ marks a conversion by molar mass, not a printed value.

Turning to `Cc1c(C(F)(F)F)cc2nc(C(=O)N3CCCCC3)sc2c1[N+](=O)[O-]`, the MIC in assay [1] was 0.5 µg/mL (≈ 1.34 µM); in assay [2] it was 0.25 µg/mL (≈ 0.67 µM); in assay [3], 0.25 µg/mL (≈ 0.67 µM).

Take `O=C(NCc1ccccn1)c1sc2c([N+](=O)[O-])cc(C(F)(F)F)cc2[n+]1[O-]`: the minimal inhibitory concentration (MIC) was 0.03 µg/mL (≈ 0.0753 µM) in assay [1], 0.06 µg/mL (≈ 0.151 µM) in assay [2] and 0.06 µg/mL (≈ 0.151 µM) in assay [3].

For `COCCN1CCN(C(=O)c2nc3cc(C(F)(F)F)c(C)c([N+](=O)[O-])c3s2)CC1`, the MIC in assay [1], in assay [2] and in assay [3] was 1 µg/mL (≈ 2.31 µM) throughout.

As for `O=C(NCc1ccccn1)c1nc2cc(C(F)(F)F)cc([N+](=O)[O-])c2s1`, the MIC in assay [1] stood at 0.25 µg/mL (≈ 0.654 µM); in assay [2] it was 0.25 µg/mL (≈ 0.654 µM); in assay [3], 0.12 µg/mL (≈ 0.314 µM).
